This is an account of results in article PMC9609330.

Data set [1] relates to AT11-L2 (DNA, G4) TGGTGGTGGTTGTTGTTGGTGGTGGTGGT
Description: CD melting. The note with it: K+ 100 mM, 10 mM lithium cacodylate pH 7.2, 10 µM DNA, 2.0 eq. ligand (20 µM).

In data set [2] the test system is 5′-Cy5-AT11-L2 (DNA, G4) TGGTGGTGGTTGTTGTTGGTGGTGGTGGT
Description: fluorescence titration (Cy5 quenching), Hill fit. The note with it: K+ 100 mM, 10 mM lithium cacodylate, 1 µM DNA, apparent KD.

Data set [3] shares this test system. Description: fluorescence titration (Cy5 quenching), Michaelis–Menten fit. The note with it: K+ 100 mM; 10 mM lithium cacodylate; 1 µM DNA; apparent KD.
For data set [4], the target named is T1, nucleolin RBD1,2 (NCL RBD1,2) (UniProt P19338 307-466). Description: fluorescence titration; PDS (pre-formed G4/ligand complex); Oligonucleotide annealed in 10 mM lithium cacodylate pH 7.2, 100 mM KCl (95 °C 10 min, then ice 10 min); titration temperature not given in the material. Conditions: protein: recombinant; label: 5'-Cy5; intramolecular G4, parallel in 100 mM KCl.
T1 sequence (P19338 307-466): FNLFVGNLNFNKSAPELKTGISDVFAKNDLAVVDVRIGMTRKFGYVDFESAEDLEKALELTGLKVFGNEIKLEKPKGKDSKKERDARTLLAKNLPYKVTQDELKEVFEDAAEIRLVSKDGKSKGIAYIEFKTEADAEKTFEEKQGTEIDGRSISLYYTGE

Data set [5] has as its target T1, nucleolin RBD1,2 (NCL RBD1,2). Description: fluorescence titration; 360A (pre-formed G4/ligand complex); Oligonucleotide annealed in 10 mM lithium cacodylate pH 7.2, 100 mM KCl (95 °C 10 min, then ice 10 min); titration temperature not given in the material. Conditions: protein: recombinant; label: 5'-Cy5; intramolecular G4, parallel in 100 mM KCl.
The target is the same in data set [6]. Description: fluorescence titration; PhenDC3 (pre-formed G4/ligand complex); Oligonucleotide annealed in 10 mM lithium cacodylate pH 7.2, 100 mM KCl (95 °C 10 min, then ice 10 min); titration temperature not given in the material. The note with it: protein: recombinant; label: 5'-Cy5; intramolecular G4, parallel in 100 mM KCl.
Data set [7] has the same target. Description: fluorescence titration; BRACO-19 (pre-formed G4/ligand complex); Oligonucleotide annealed in 10 mM lithium cacodylate pH 7.2, 100 mM KCl (95 °C 10 min, then ice 10 min); titration temperature not given in the material. The note with it: protein: recombinant; label: 5'-Cy5; intramolecular G4, parallel in 100 mM KCl.
Data set [8] shares this target. Description: fluorescence titration; TMPyP4 (pre-formed complex; TMPyP4 excess disrupts the G4); Oligonucleotide annealed in 10 mM lithium cacodylate pH 7.2, 100 mM KCl (95 °C 10 min, then ice 10 min); titration temperature not given in the material. The note with it: protein: recombinant; label: 5'-Cy5; intramolecular G4, parallel in 100 mM KCl.

One may read the ΔTm as the shift of the melting midpoint relative to a reference. By Kd is commonly meant a measure of binding affinity in units of concentration.

In the case of `C[n+]1ccc(-c2c3nc(c(-c4cc[n+](C)cc4)c4ccc([nH]4)c(-c4cc[n+](C)cc4)c4nc(c(-c5cc[n+](C)cc5)c5ccc2[nH]5)C=C4)C=C3)cc1`, the ΔTm in data set [1] (unfolds G4 at 3.5 eq.) was determined as 22.9 °C. Moreover, the KD in data set [2] (Hill n = 1.2) was found to be 1300 ± 150 nM.

As to `CN(C)c1ccc(Nc2c3ccc(NC(=O)CCN4CCCC4)cc3nc3cc(NC(=O)CCN4CCCC4)ccc23)cc1`, the ΔTm in data set [1] worked out at 22.5 °C. Also, the KD in data set [2] (Hill n = 0.9) worked out at 5600 ± 2000 nM.

In the case of `NCCOc1cc(C(=O)Nc2cc(OCCN)c3ccccc3n2)nc(C(=O)Nc2cc(OCCN)c3ccccc3n2)c1`, the ΔTm in data set [1] came to 1.8 °C. In data set [3], the KD is 14 ± 4.9 nM.

For `C[n+]1cc(NC(=O)c2cccc(C(=O)Nc3cc4ccccc4[n+](C)c3)n2)cc2ccccc21`, the ΔTm in data set [1] amounted to 6.5 °C. Further, the KD in data set [2] (Hill n = 0.6) was found to be 31000 ± 60000 nM.

Consider `C[n+]1cc(NC(=O)c2ccc3ccc4ccc(C(=O)Nc5cc6ccccc6[n+](C)c5)nc4c3n2)cc2ccccc21`, for which the ΔTm in data set [1] was 14.9 °C. In data set [2] (Hill n = 2.2), the KD was 1400 ± 85 nM.

On to TGGTGGTGGTTGTTGTTGGTGGTGGTGGT (structured_DNA) [5'-Cy5-AT11-L2 G4], for which the Kd was found to be 63 nM in data set [4]; 6400 nM in data set [5]; 18 nM in data set [6]; 150 nM in data set [7]; 1.2 nM in data set [8].
